Assay results as given in US20240368181A1, “QUINOXALINE DERIVATIVES AND USES THEREOF” (Black Diamond Therapeutics, Inc., priority 2021, published 2024).

What was measured:
Assay type in all cases: cell-based
[1] = tested on: RT-112 (FGFR3-Tacc3 fusion) cells; assay: cell proliferation assay (CellTiterGlo), RT-112 cells; details: 72 hours
How it was run: (§1)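 To assess antiproliferative activity, plated cells receive test compound across a concentration range, with DMSO as vehicle control. Remaining viable cells are quantified from intracellular ATP by luminescence. Growth relative to vehicle-treated cells gives the IC50.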

[2] = tested on: SNU-16 (FGFR2-amplification) cells; assay: cell proliferation assay (CellTiterGlo), SNU-16 cells; details: 72 hours
How it was run: as §1

[3] = tested on: DMS-114 (FGFR1 overexpression) cells; assay: cell proliferation assay (CellTiterGlo), DMS-114 cells
How it was run: as §1

[4] = tested on: UM-UC-14 (FGFR3-S249C) cells; assay: cell proliferation assay (CellTiterGlo), UM-UC-14 cells
How it was run: as §1

[5] = Homo sapiens, RT-112, RT112 cells

SMILES	IC50 [1, 5] [µM]	IC50 ([2]; Homo sapiens) [µM]	IC50 ([3]; Homo sapiens, DMS-114, 72 h) [µM]	IC50 ([4]; UMUC14, 72 h) [µM]	IC50 ([1]; RT112 cells) [µM]	IC50 [2] [µM]	IC50 ([3]; 72 hours) [µM]	IC50 ([4]; 72 hours) [µM]
Cc1nc2ccc(Oc3ccc4ncc(-c5cnn(CC6CS(=O)(=O)C6)c5)nc4c3Cl)cc2[nH]1 [Compound 228]	0.02 to 0.1	0.02 to 0.1	≥ 0.4	0.02 to 0.1	–	–	–	–
Cc1nc2ccc(Oc3ccc4ncc(-c5cnn(C6CCC(F)(F)CC6)c5)nc4c3Cl)cc2[nH]1 [Compound 358]	0.1 to 0.4	0.02 to 0.1	≥ 0.4	0.1 to 0.4	–	–	–	–
Cc1nc2ccc(Oc3ccc4ncc(-c5cnn(C6CN(C7COC7)C6)c5)nc4c3Cl)cc2[nH]1 [Compound 237]	< 0.02	0.02 to 0.1	0.1 to 0.4	0.02 to 0.1	–	–	–	–
Cc1nc2ccc(Oc3ccc4ncc(-c5cnn(CC6CN(CC#N)C6)c5)nc4c3Cl)cc2[nH]1 [Compound 310]	0.02 to 0.1	0.02 to 0.1	≥ 0.4	0.02 to 0.1	–	–	–	–
Cc1nc2ccc(Oc3ccc4ncc(-c5cnn(CC6CC(F)(F)C6)c5)nc4c3Br)cc2[nH]1 [Compound 243]	0.02 to 0.1	0.02 to 0.1	≥ 0.4	0.02 to 0.1	–	–	–	–
Cc1nc2ccc(Oc3ccc4ncc(-c5cnn(CC6CC(F)(F)C6)c5)nc4c3C)cc2[nH]1 [Compound 302]	0.1 to 0.4	0.1 to 0.4	≥ 0.4	0.1 to 0.4	–	–	–	–
Cc1nc2ccc(Oc3ccc4ncc(-c5cnn(CC(=O)NCC(C)(C)NC=O)c5)nc4c3Cl)cc2[nH]1 [Compound 208]	0.1 to 0.4	0.1 to 0.4	≥ 0.4	≥ 0.4	–	–	–	–
Cc1nc2ccc(Oc3ccc4ncc(-c5cnn(C6CN(C7CN(C)C7)C6)c5)nc4c3Cl)cc2[nH]1 [Compound 230]	0.02 to 0.1	0.02 to 0.1	≥ 0.4	0.02 to 0.1	–	–	–	–
Cc1nc2ccc(Oc3ccc4ncc(-c5cnn(C67CCN(CC6)C7)c5)nc4c3Cl)cc2[nH]1 [Compound 295]	≥ 0.4	≥ 0.4	≥ 0.4	≥ 0.4	–	–	–	–
Cc1nc2ccc(Oc3ccc4ncc(-c5cnn(CC6CCNCC6(F)F)c5)nc4c3Cl)cc2[nH]1 (centres unmarked) [Compound 386]	0.02 to 0.1	0.02 to 0.1	≥ 0.4	0.02 to 0.1	–	–	–	–
C=C(C)c1c(Oc2ccc3nc(C)[nH]c3c2)ccc2ncc(-c3cnn(CC4CC(F)(F)C4)c3)nc12 [Compound 231]	0.02 to 0.1	0.02 to 0.1	≥ 0.4	0.02 to 0.1	–	–	–	–
CCS(=O)(=O)N1CC(CC#N)(n2cc(-c3cnc4ccc(Oc5ccc6nc(C)[nH]c6c5)c(Cl)c4n3)cn2)C1 [Compound 374]	< 0.02	0.02 to 0.1	≥ 0.4	0.02 to 0.1	–	–	–	–
Cc1nc2ccc(Oc3ccc4ncc(-c5cnn(C[C@H]6CCS(=O)(=O)C6)c5)nc4c3Cl)cc2[nH]1 [Compound 311]	< 0.02	< 0.02	0.1 to 0.4	0.02 to 0.1	–	–	–	–
C=CCn1cc(-c2cnc3ccc(Oc4ccc5nc(C)[nH]c5c4)c(Cl)c3n2)cn1 [Compound 347]	0.02 to 0.1	0.02 to 0.1	≥ 0.4	0.1 to 0.4	–	–	–	–
Cc1nc2ccc(Oc3ccc4ncc(-c5cnn(CC(=O)N6CC[C@H](F)C6)c5)nc4c3Cl)cc2[nH]1 [Compound 284]	0.02 to 0.1	0.02 to 0.1	≥ 0.4	0.02 to 0.1	–	–	–	–
CSC1CCC(Cn2cc(-c3cnc4ccc(Oc5ccc6nc(C)[nH]c6c5)c(Cl)c4n3)cn2)CC1 (centres unmarked) [Compound 371]	0.02 to 0.1	0.02 to 0.1	≥ 0.4	0.1 to 0.4	–	–	–	–
Cc1nc2ccc(Oc3ccc4ncc(-c5cnn(CC6CC(F)(F)C6)c5)nc4c3Cl)cc2[nH]1 [Compound 387]	0.02 to 0.1	0.02 to 0.1	≥ 0.4	0.02 to 0.1	–	–	–	–
Cc1nc2ccc(Oc3ccc4ncc(-c5cnn(C6CC(O)C6)c5)nc4c3Cl)cc2[nH]1 (centres unmarked) [Compound 258]	0.02 to 0.1	0.02 to 0.1	≥ 0.4	0.02 to 0.1	–	–	–	–

SMILES	IC50 [1, 5] [µM]	IC50 ([2]; Homo sapiens) [µM]	IC50 ([3]; Homo sapiens, DMS-114, 72 h) [µM]	IC50 ([4]; UMUC14, 72 h) [µM]	IC50 ([1]; RT112 cells) [µM]	IC50 [2] [µM]	IC50 ([3]; 72 hours) [µM]	IC50 ([4]; 72 hours) [µM]
Cc1nc2ccc(Oc3ccc4ncc(-c5cnn(CC(=O)N6CCOCC6)c5)nc4c3Cl)cc2[nH]1 [Compound 285]	0.02 to 0.1	0.02 to 0.1	≥ 0.4	0.02 to 0.1	–	–	–	–
Cc1nc2ccc(Oc3ccc4ncc(-c5cnn(C6CC(N7CC(O)C7)C6)c5)nc4c3Cl)cc2[nH]1 (centres unmarked) [Compound 309]	0.02 to 0.1	0.02 to 0.1	0.1 to 0.4	0.02 to 0.1	–	–	–	–
Cc1nc2ccc(Oc3ccc4ncc(-c5cnn(CC(=O)N6CC[C@@H](F)C6)c5)nc4c3Cl)cc2[nH]1 [Compound 283]	0.02 to 0.1	0.02 to 0.1	≥ 0.4	0.02 to 0.1	–	–	–	–
Cc1nc2ccc(Oc3ccc4ncc(-c5cnn(C6CCN(CCO)CC6)c5)nc4c3Cl)cc2[nH]1 [Compound 301]	< 0.02	< 0.02	≥ 0.4	0.02 to 0.1	–	–	–	–
Cc1nc2ccc(Oc3ccc4ncc(-c5cnn([C@H]6CC[C@@H](N7CCC7)CC6)c5)nc4c3Cl)cc2[nH]1 [Compound 356]	0.02 to 0.1	0.02 to 0.1	0.1 to 0.4	0.02 to 0.1	–	–	–	–
Cc1nc2ccc(Oc3ccc4ncc(-c5cnn(C6CCN(CC(F)(F)F)C7(CC7)C6)c5)nc4c3Cl)c(F)c2[nH]1 (centres unmarked) [Compound 121]	0.02 to 0.1	0.02 to 0.1	≥ 0.4	0.02 to 0.1	–	–	–	–
Cc1nc2ccc(Oc3ccc4ncc(-c5cnn([C@H]6CC7(C[C@@H](O)C7)C6)c5)nc4c3Cl)cc2[nH]1 (some centres unmarked) [Compound 124]	–	–	–	–	0.02 to 0.1	0.02 to 0.1	≥ 0.4	0.02 to 0.1
Cc1nc2ccc(Oc3ccc4ncc(-c5cnn([C@H]6CC7(C[C@@H](O)C7)C6)c5)nc4c3Cl)c(F)c2[nH]1 (some centres unmarked) [Compound 127]	< 0.02	< 0.02	0.1 to 0.4	< 0.02	–	–	–	–
Cc1nc2ccc(Oc3ccc4ncc(-c5cnn(C6CC(N7CC(F)(F)C7)C6)c5)nc4c3Cl)cc2[nH]1 (centres unmarked) [Compound 265]	0.02 to 0.1	0.02 to 0.1	0.1 to 0.4	0.02 to 0.1	–	–	–	–
Cc1nc2ccc(Oc3ccc4ncc(-c5cnn(C6CN(C(=O)N(C)C)C6)c5)nc4c3Cl)cc2[nH]1 [Compound 184]	0.02 to 0.1	0.02 to 0.1	≥ 0.4	0.02 to 0.1	–	–	–	–
Cc1nc2cc(Oc3ccc4ncc(-c5cnn(CC6(O)CCN(C7COC7)CC6)c5)nc4c3Cl)ccc2[nH]1 [Compound 248]	0.02 to 0.1	0.02 to 0.1	0.1 to 0.4	0.02 to 0.1	–	–	–	–
Cc1nc2ccc(Oc3ccc4ncc(-c5cnn(C6CN(c7cccc(N(C)C)n7)C6)c5)nc4c3Cl)cc2[nH]1 [Compound 190]	≥ 0.4	≥ 0.4	≥ 0.4	≥ 0.4	–	–	–	–
Cc1nc2ccc(Oc3ccc4ncc(-c5cnn([C@H](C)CO)c5)nc4c3Cl)c(F)c2[nH]1 [Compound 107]	< 0.02	< 0.02	0.1 to 0.4	< 0.02	–	–	–	–
Cc1nc2ccc(Oc3ccc4ncc(-c5cnn([C@H]6C[C@@H](N7C[C@H]8C[C@@H]7CO8)C6)c5)nc4c3Cl)cc2[nH]1 [Compound 207]	0.02 to 0.1	0.02 to 0.1	0.1 to 0.4	0.02 to 0.1	–	–	–	–
Cc1nc2ccc(Oc3ccc4ncc(-c5cnn(CC(=O)N6C[C@@H](C)O[C@@H](C)C6)c5)nc4c3Cl)cc2[nH]1 [Compound 193]	0.02 to 0.1	0.1 to 0.4	≥ 0.4	0.1 to 0.4	–	–	–	–
Cc1nc2ccc(Oc3ccc4ncc(-c5cnn(CC6(C)CCOC6)c5)nc4c3Cl)cc2[nH]1 (centres unmarked) [Compound 357]	0.02 to 0.1	0.02 to 0.1	≥ 0.4	0.02 to 0.1	–	–	–	–
Cc1nc2cc(Oc3ccc4ncc(-c5cnn(CC6(O)CCNCC6)c5)nc4c3Cl)ccc2[nH]1 [Compound 349]	≥ 0.4	≥ 0.4	≥ 0.4	≥ 0.4	–	–	–	–
